# Measured values reported in patent EP1283052A1, “Pharmaceutical composition containing caspase-8 and /or caspase-9 useful for overcoming glucocorticoid- and cancer therapy-induced apoptosis of tumours” (Deutsches Krebsforschungszentrum Stiftung des öffentlichen …, priority 2001, dated 2003).
# Assays:
# Type in all cases: cell-based, human
# [1] = tested on: caspase-8; test: Fluorometric caspase-8 activity assay in P693 cells; details: cisplatin 2 µg/ml alone, Fig. 2b
# Method: (§1) • (a) Left: P5 an CEM cells were treated with cisplatin (1-5 µg/ml) in the absence or presence of DEX (1 µM) as indicated. Proteins were extracted and expression of CD95-L, TRAIL or TNF-α was detected by Western blot analysis. The size of the proteins in kDa is indicated. Right: HeLa and P5 were treated with CD95 agonistic antibody αAPO-1 (CD95, 1 µg/ml), recombinant TRAIL protein (TRAIL, 100 ng/ml) or recombinant TNF-α protein (TNF-α, 100 ng/ml) in the absence (white bars) or presence (black bars) of DEX (1 µM). 24 h later the percentage of apoptosis was determined by annexin-staining and FACS-analysis in untreated (CO) and stimulated cells at the time points indicated. • (b) P693 and CEM cells were treated with cisplatin (2 µg/ml) in the absence or presence of DEX as indicated. 24 and 48 h following treatment cells were lysed and caspase-8 activity was determined by a fluorescent caspase-8 assay and spectroscopy. • (c) P5 cells were stable transfected with empty vector (pcDNA3), or pcDNA3 vector encoding dominant negative FADD protein (FADD-DN). Proteins were extracted from both cell lines and expression of wildtype (WT) and FADD-DN (DN) was detected by Western blot. Left: Stable transfected P5 cells were treated with αAPO-1 (1 µg/ml) and 24 h later apoptosis was determined by staining with annexin/propidium iodide and flow-cytometry. […]
# [2] = tested on: P5 and HeLa cervix carcinoma cells; test: Apoptosis by annexin-V/FITC staining and flow cytometry in cervix carcinoma cells; details: cisplatin 2 µg/ml, absence of DEX, 24-72 h; Fig. 1b
# Method: • (a) Human epidermoid lung cancer cells (P693) were injected into nude mice. At a tumour volume of 500 mm^3 weekly treatment with cisplatin (5mg/kg/week) was started. Cisplatin was injected intraperitoneally in the absence (CIS) or presence (DEX/CIS) of DEX which was added to the drinking water (0.28 mg/L) for the duration of the experiment. […] As controls, tumor growth of xenografts from mice which received neither cisplatin nor DEX (CO) or from mice which received DEX only (DEX) was determined. The tumour volume in each animal was measured at weekly intervals for a period of 5 weeks. Data are presented as the means +/- SD of 6 to 8 animals. • (b) The human cervical carcinoma cell lines HeLa and P5 were γ-irradiated (10 Gy) or treated with cisplatin (2 µg/ml) in the absence (white bars) or presence (black bars) of DEX (1 µM). The percentage of apoptosis was measured in untreated (CO) and stimulated cells by annexin-staining and FACS-analysis at the time points indicated. (c) P5, P693 and human leukemic T cells (CEM) cells were treated with cisplatin (2 µg/ml) in the absence or presence of DEX as indicated. 24 and 48 h following treatment cells were lysed and caspase-3 activity was determined by a fluorescent caspase-3 assay and spectroscopy.
# [3] = tested on: caspase-8; test: Fluorometric caspase-8 activity assay in CEM cells; details: cisplatin 2 µg/ml alone, Fig. 2b
# Method: as §1
# [4] = tested on: CD95-L, TRAIL and TNF-α; test: Western blot of death ligand expression in P5 and CEM cells; details: cisplatin alone (1-5 µg/ml), both cell types; Fig. 2a
# Method: as §1
compound,measurement,setting,value
N.N.[Cl][Pt][Cl] [cisplatin],activity of caspase-8,[1],induced 48 h following treatment
same,apoptosis,[2],detectable 24 h following treatment and increased during the next 48 and 72 h
same,activity of caspase-8,[3],responded earlier at 24 h with increased activity at 48 h
same,"expression of DILs such as CD95-L, TRAIL and TNF-α",[4],enhanced expression
